System: control cells (CHO-K1 cells expressing YC2.60 gene)
Test: Calcium imaging of control cells (CHO-K1 cells expressing YC2.60 gene only)
Assay type: cell-based, Chinese hamster
Settings: control cells without TMC6, stimulation with high-concentration NaCl solution
Protocol: CHO-K1 cells were transfected with TMC6-pcDNA3.1 or pcDNA3.1 in combination with YC2.60-pcDNA, to prepare TMC6-expressing cells (cells expressing the mouse TMC6 gene and the YC2.60 gene) and control cells (cells expressing the YC2.60 gene). The prepared cells were stimulated, and activation of the cells was measured. The procedure was as follows.
That is, first, CHO-K1 cells (ATCC) were inoculated into a culture dish having a diameter of 60 mm while adjusting the number of the cells to obtain 60% confluence, and cultured for 8 hr. As the medium, 5 mL of Ham's F-12K (Kaighn's) (Life Technologies) containing 10% fetal bovine serum (Life Technologies) was used. A 15 μL aliquot of FuGENE 6 (Promega) was added to 235 μL of Opti-MEM (Thermo Fisher Scientific), and incubated for 5 min at a room temperature. Then, 0.625 μg of TMC6-pcDNA3.1 and 2.5 μg of YC2.60-pcDNA were further added thereto, and incubated for 15 min at a room temperature. Then, the whole of the resultant mixture was dropped into the culture broth of the CHO-K1 cells, and the culture broth was mildly stirred. Then, the cells were further cultured for 18 hr under a condition of 5% CO2 at 37° C., to obtain the TMC6-expressing cells. Similarly, the control cells were obtained through transfection using pcDNA3.1 instead of TMC6-pcDNA3.1.
After the cultivation, the culture broth was removed. […]

## [Cl-].[Na+] [NaCl, sodium chloride]
  change of YFP/CFP value (intracellular calcium concentration): not observed an increase
